How the values were obtained:
[1] = molecular target: Dopamine receptors; D2 & D4 (Homo sapiens) (UniProt P14416+P21917); experiment: Selectivity of D2 receptor over D4 receptor; type: protein assay
[2] = molecular target: T1, D(4) dopamine receptor (Homo sapiens, UniProt P21917); experiment: Binding affinity at cloned human Dopamine receptor D4 expressed in HEK 293 cells, using [3H]nemonapride as radioligand; type: cell-based, HEK293
T1 sequence (P21917 whole entry): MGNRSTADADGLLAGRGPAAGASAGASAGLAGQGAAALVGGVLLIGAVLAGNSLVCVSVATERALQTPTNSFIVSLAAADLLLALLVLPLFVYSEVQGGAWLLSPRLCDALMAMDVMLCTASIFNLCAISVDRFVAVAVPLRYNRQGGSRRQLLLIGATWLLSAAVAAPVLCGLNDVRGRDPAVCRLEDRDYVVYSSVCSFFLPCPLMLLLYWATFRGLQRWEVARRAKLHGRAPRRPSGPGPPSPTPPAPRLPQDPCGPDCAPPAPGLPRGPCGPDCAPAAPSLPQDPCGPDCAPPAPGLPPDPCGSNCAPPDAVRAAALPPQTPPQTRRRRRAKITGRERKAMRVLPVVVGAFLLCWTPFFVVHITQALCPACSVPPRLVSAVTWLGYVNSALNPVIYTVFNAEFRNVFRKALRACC

[3] = molecular target: D(2) dopamine receptor (Homo sapiens, UniProt P14416); experiment: Binding affinity at cloned human Dopamine receptor D2 expressed in CHO cells, using [125I]iodosulpiride as radioligand; type: cell-based
Chain of D(2) dopamine receptor (P14416 whole entry): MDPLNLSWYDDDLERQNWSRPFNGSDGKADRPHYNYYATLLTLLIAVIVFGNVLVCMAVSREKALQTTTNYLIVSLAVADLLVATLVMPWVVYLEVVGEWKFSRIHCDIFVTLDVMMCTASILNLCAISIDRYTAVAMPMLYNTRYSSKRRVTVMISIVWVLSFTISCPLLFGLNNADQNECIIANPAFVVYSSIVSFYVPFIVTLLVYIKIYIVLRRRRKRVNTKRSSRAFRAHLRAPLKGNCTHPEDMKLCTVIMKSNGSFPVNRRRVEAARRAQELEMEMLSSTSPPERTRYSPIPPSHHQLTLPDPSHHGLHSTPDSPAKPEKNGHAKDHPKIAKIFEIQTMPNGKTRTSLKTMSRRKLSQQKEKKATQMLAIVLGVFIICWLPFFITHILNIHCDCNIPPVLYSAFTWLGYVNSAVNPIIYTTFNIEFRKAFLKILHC

Chain of Dopamine receptors; D2 & D4 (Homo sapiens) (P14416 whole entry, looked up, one chain of several): as the sequence (P14416 whole entry) above

| Structure (SMILES) | Selectivity [1] | Ki [2] | Ki [3] |
| --- | --- | --- | --- |
| COc1ccc(N2CCN(CCCCNC(=O)C(C)(C)C)CC2)cc1 | > 30 | 0.316 µM | > 10 µM |
| CC(C)(C)C(=O)NCCCCN1CCN(c2ccccc2)CC1 | 3 | 0.316 µM | 0.794 µM |
| CC1CN(CCCCNC(=O)C(C)(C)C)CCN1c1ccc(Cl)cc1 (stereo not drawn) |  | 0.0631 µM | 1.58 µM |
| CC(C)(C)C(=O)NCCCN1CCN(c2ccc(Cl)cc2)CC1 | > 50 | 0.2 µM | > 10 µM |
| CC(C)(C)C(=O)NCCCCN1CCN(c2ccc(F)cc2)CC1 | 15 | 0.126 µM | 2 µM |
| CC(=O)NCCCCN1CCN(c2ccc(Cl)cc2)CC1 | 1 | 1.26 µM | 1.58 µM |
| CC(C)(C)C(=O)NCCCCN1CCN2c3ccc(Cl)cc3CCC2C1 (stereo not drawn) |  | 0.0631 µM | 0.398 µM |
| CC(C)(C)C(=O)NCCCCCN1CCN(c2ccc(Cl)cc2)CC1 | 3 | 0.126 µM | 0.398 µM |
| O=C(NCCCCN1CCN(c2ccc(Cl)cc2)CC1)c1ccccc1 | 3 | 0.158 µM | 0.398 µM |
| CC(C)(C)C(=O)NCCCCN1CCN(c2ccc(C(F)(F)F)cc2)CC1 | 80 | 0.0501 µM | 3.98 µM |
| CC(C)(C)C(=O)NCCCCN1CCN(c2ccccc2Cl)CC1 | 1 | 0.0794 µM | 0.0631 µM |
| CC(C)(C)C(=O)NCCCCN1CCN(c2cccc(Cl)c2)CC1 | 3 | 0.1 µM | 0.251 µM |
| CC(C)(C)C(=O)NCCCCN1CCN(c2ccc(Cl)cc2)CC1 | 200 | 0.0126 µM | 2.51 µM |
| CCCCC(C)(C)C(=O)NCCN1CCN(c2ccc(Cl)cc2)CC1 | 50 | 0.0316 µM | 1.58 µM |
| CC(C)C(=O)NCCCCN1CCN(c2ccc(Cl)cc2)CC1 | 16 | 0.126 µM | 2 µM |

Second part, the compound after the results:

| Selectivity [1] | Ki [2] | Ki [3] | Structure (SMILES) |
| --- | --- | --- | --- |
| 100 | 0.0251 µM | 2.51 µM | CC(C)(C)C(=O)NCCN1CCN(c2ccc(Cl)cc2)CC1 |
| 10 | 0.0158 µM | 0.158 µM | COc1cc(Cl)ccc1N1CCN(CCCCNC(=O)C(C)(C)C)CC1 |
| 100 | 0.00794 µM | 0.794 µM | CC1(C(=O)NCCN2CCN(c3ccc(Cl)cc3)CC2)CCCCC1 |
| 50 | 0.0316 µM | 1.58 µM | CC(C)(C)C(=O)NCCCCN1CCN(c2ccc(Br)cc2)CC1 |
| 80 | 0.00501 µM | 0.398 µM | O=C(NCCN1CCN(c2ccc(Cl)cc2)CC1)C12CC3CC(CC(C3)C1)C2 |
| 320 | 0.00794 µM | 2.51 µM | CCCC(C)(C)C(=O)NCCN1CCN(c2ccc(Cl)cc2)CC1 |
| 2 | 0.0126 µM | 0.02 µM | COc1ccccc1N1CCN(CCCCNC(=O)C(C)(C)C)CC1 |
| 125 | 0.0126 µM | 1.58 µM | CCCC(C)(C)C(=O)NCCCCN1CCN(c2ccc(Cl)cc2)CC1 |
| 63 | 0.0158 µM | 1 µM | CCC(C)(C)C(=O)NCCCCN1CCN(c2ccc(Cl)cc2)CC1 |
| 30 | 0.02 µM | 0.631 µM | O=C(NCCCCN1CCN(c2ccc(Cl)cc2)CC1)C12CC3CC(CC(C3)C1)C2 |
| 320 | 0.00794 µM |  | CCC(C)(C)C(=O)NCCN1CCN(c2ccc(Cl)cc2)CC1 |
| 100 | 0.01 µM | 1 µM | CC1(C(=O)NCCCCN2CCN(c3ccc(Cl)cc3)CC2)CCCCC1 |

— ChEMBL document CHEMBL1129089, “N-(substituted-phenyl) piperazines: antagonists with high binding and functional selectivity for dopamine D4 receptors” (Bioorg Med Chem Lett, 1996)
